Test results: ChEMBL document CHEMBL2074032, “Involvement of MDR1 P-glycoprotein in multifactorial resistance to methotrexate” (Int J Cancer, 1996)

Target: ATP-dependent translocase ABCB1 (Homo sapiens, UniProt P08183)
Test: TP_TRANSPORTER: intracellular accumulation in CEM/MTX R cells
Format: functional, cell-based

Sequence of ATP-dependent translocase ABCB1 (P08183 whole entry): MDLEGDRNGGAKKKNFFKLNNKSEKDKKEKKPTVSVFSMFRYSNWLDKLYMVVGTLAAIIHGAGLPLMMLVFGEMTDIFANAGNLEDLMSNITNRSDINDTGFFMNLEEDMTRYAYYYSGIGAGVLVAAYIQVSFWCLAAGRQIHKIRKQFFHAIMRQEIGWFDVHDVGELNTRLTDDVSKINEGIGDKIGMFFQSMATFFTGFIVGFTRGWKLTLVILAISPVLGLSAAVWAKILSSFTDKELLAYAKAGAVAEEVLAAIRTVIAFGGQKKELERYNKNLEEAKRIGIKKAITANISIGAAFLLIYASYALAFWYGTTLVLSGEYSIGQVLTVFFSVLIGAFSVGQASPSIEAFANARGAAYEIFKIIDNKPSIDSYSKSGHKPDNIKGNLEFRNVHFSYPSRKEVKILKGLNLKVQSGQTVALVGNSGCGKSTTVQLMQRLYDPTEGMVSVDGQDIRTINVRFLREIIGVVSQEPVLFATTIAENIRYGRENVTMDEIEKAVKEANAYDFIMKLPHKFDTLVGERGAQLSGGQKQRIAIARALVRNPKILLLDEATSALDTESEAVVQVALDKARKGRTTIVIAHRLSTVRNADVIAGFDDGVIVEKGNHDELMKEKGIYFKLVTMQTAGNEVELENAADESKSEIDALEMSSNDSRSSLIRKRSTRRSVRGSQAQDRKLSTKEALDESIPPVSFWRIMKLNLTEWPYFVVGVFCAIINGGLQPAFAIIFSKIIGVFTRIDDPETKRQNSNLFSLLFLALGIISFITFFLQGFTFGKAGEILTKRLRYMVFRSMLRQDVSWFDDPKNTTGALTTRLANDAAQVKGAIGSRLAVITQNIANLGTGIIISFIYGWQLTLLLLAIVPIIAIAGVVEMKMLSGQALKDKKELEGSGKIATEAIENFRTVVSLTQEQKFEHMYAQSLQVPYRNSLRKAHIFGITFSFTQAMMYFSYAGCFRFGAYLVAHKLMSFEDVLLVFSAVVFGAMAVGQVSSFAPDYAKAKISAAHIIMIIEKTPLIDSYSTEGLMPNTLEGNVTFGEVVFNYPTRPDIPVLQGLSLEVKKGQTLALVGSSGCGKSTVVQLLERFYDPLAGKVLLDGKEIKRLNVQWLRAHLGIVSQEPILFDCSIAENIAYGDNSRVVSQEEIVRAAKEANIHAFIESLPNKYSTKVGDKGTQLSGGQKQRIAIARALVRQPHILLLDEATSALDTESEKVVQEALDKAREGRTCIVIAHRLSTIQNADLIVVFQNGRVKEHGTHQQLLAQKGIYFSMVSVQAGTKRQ

CN(Cc1cnc2nc(N)nc(N)c2n1)c1ccc(C(=O)N[C@@H](CCC(=O)O)C(=O)O)cc1 [METHOTREXATE]
Activity: substrate [+]
